Several values for one entry are separate records, joined by “and”; a condition that tells them apart may be missing. Identical values can stand only once. Toxic doses and inconclusive results are not listed.
Tested on: CD2F1 mice, ip Colon 26 adenocarcinoma, median survival T/C
Assay: NCI In Vivo Anticancer Drug Screen. Data for tumor model Colon 26 Adenocarcinoma (intraperitoneal) in CD2F1 (CDF1) mice
Settings: endpoint: median survival time, higher = longer survival
Experimental: The antitumor activity of compounds was measured in mice bearing transplantable tumors. Survival or tumor size were measured and the results are expressed as the measurement made in the treated group (T) divided by the measurement made in the vehicle treated control group (C). The tumor model used in this assay is Colon 26 Adenocarcinoma (intraperitoneal) in CD2F1 (CDF1) mice

[1] = dose: 25.0 mg/kg/injection, schedule: Q04DX003 (ip), vehicle: saline with Tween-80
[2] = dose: 50.0 mg/kg/injection, schedule: Q04DX003 (ip), vehicle: saline with Tween-80
[3] = dose: 100.0 mg/kg/injection, schedule: Q04DX003 (ip), vehicle: saline with Tween-80

SMILES: O=C(O)C1(C(=O)O)CCC1.[NH2-].[NH2-].[Pt+2]
- T/C (dose: 5.85 mg/kg/injection, schedule: Q04DX003 (iv), vehicle: saline): 96 % of control
- T/C (dose: 8.78 mg/kg/injection, schedule: Q04DX003 (iv), vehicle: saline): 102 % of control
- T/C (dose: 10.0 mg/kg/injection, schedule: Q01DX004 (ip), vehicle: saline): 110 % of control
- T/C (dose: 11.7 mg/kg/injection, schedule: Q01DX001 (ip), vehicle: saline): 105 % of control
- T/C (dose: 13.2 mg/kg/injection, schedule: Q04DX003 (iv), vehicle: saline): 105 % of control
- T/C (dose: 17.6 mg/kg/injection, schedule: Q01DX001 (ip), vehicle: saline): 102 % of control
- T/C (dose: 17.6 mg/kg/injection, schedule: Q01DX001 (iv), vehicle: saline): 91 % of control
- T/C (dose: 19.8 mg/kg/injection, schedule: Q04DX003 (ip), vehicle: saline): 171 % of control
- T/C (dose: 19.8 mg/kg/injection, schedule: Q04DX003 (iv), vehicle: saline): 117 % of control
- T/C (dose: 20.0 mg/kg/injection, schedule: Q01DX004 (ip), vehicle: saline): 225 % of control
- T/C (dose: 25.0 mg/kg/injection, schedule: Q04DX003 (ip), vehicle: dextrose): 203 % of control
- T/C (dose: 26.3 mg/kg/injection, schedule: Q01DX001 (ip), vehicle: saline): 109 % of control and 217 % of control
- T/C (dose: 26.3 mg/kg/injection, schedule: Q01DX001 (iv), vehicle: saline): 118 % of control and 94 % of control
- T/C (dose: 29.6 mg/kg/injection, schedule: Q04DX003 (ip), vehicle: saline): 225 % of control
- T/C (dose: 29.6 mg/kg/injection, schedule: Q04DX003 (iv), vehicle: saline): 162 % of control
- T/C (dose: 30.0 mg/kg/injection, schedule: Q04DX004 (iv), vehicle: other): 154 % of control
- T/C (dose: 33.0 mg/kg/injection, schedule: Q04DX002 (iv), vehicle: other): 109 % of control
- T/C (dose: 39.5 mg/kg/injection, schedule: Q01DX001 (ip), vehicle: saline): 168 % of control
- T/C (dose: 39.5 mg/kg/injection, schedule: Q01DX001 (iv), vehicle: saline): 95 % of control
- T/C (dose: 40.0 mg/kg/injection, schedule: Q01DX004 (ip), vehicle: saline): 380 % of control
- T/C (dose: 44.0 mg/kg/injection, schedule: Q04DX004 (iv), vehicle: other): 226 % of control
- T/C (dose: 44.4 mg/kg/injection, schedule: Q04DX003 (ip), vehicle: saline): 257 % of control
- T/C (dose: 44.4 mg/kg/injection, schedule: Q04DX003 (iv), vehicle: saline): 188 % of control
- T/C (dose: 50.0 mg/kg/injection, schedule: Q04DX003 (ip), vehicle: dextrose): 228 % of control
- T/C (dose: 59.3 mg/kg/injection, schedule: Q01DX001 (ip), vehicle: saline): 217 % of control
- T/C (dose: 59.3 mg/kg/injection, schedule: Q01DX001 (iv), vehicle: saline): 103 % of control and 118 % of control
- T/C (dose: 60.0 mg/kg/injection, schedule: Q01DX004 (ip), vehicle: saline): 324 % of control
- T/C (dose: 65.0 mg/kg/injection, schedule: Q04DX004 (iv), vehicle: other): 253 % of control
- T/C (dose: 66.7 mg/kg/injection, schedule: Q04DX003 (ip), vehicle: saline): 151 % of control
- T/C (dose: 87.0 mg/kg/injection, schedule: Q04DX002 (iv), vehicle: other): 183 % of control
- T/C (dose: 88.9 mg/kg/injection, schedule: Q01DX001 (ip), vehicle: saline): 217 % of control and 257 % of control
- T/C (dose: 88.9 mg/kg/injection, schedule: Q01DX001 (iv), vehicle: saline): 102 % of control
- T/C (dose: 100.0 mg/kg/injection, schedule: Q04DX003 (ip), vehicle: saline): 257 % of control
- T/C (dose: 100.0 mg/kg/injection, schedule: Q04DX003 (iv), vehicle: saline): 168 % of control
- T/C (dose: 133.0 mg/kg/injection, schedule: Q01DX001 (ip), vehicle: saline): 217 % of control and 257 % of control
- T/C (dose: 133.0 mg/kg/injection, schedule: Q01DX001 (iv), vehicle: saline): 121 % of control and 257 % of control
- T/C (dose: 200.0 mg/kg/injection, schedule: Q01DX001 (ip), vehicle: saline): 217 % of control and 257 % of control

SMILES: COc1ccc2cc1Oc1ccc(cc1)C[C@H]1c3cc(c(OC)cc3CCN1C)Oc1c(OC)c(OC)cc3c1[C@H](C2)N(C)CC3
- T/C (dose: 12.5 mg/kg/injection, schedule: Q04DX003 (ip), vehicle: saline with Tween-80): 92 % of control
- T/C [1]: 101 % of control
- T/C [2]: 92 % of control
- T/C [3]: 94 % of control
- T/C (dose: 200.0 mg/kg/injection, schedule: Q04DX003 (ip), vehicle: saline with Tween-80): 101 % of control

SMILES: O=C(O)CC(NC(=O)CP(=O)(O)O)C(=O)O (centres undefined)
- T/C (dose: 108.0 mg/kg/injection, schedule: Q04DX003 (ip), vehicle: saline): 119 % of control
- T/C (dose: 180.0 mg/kg/injection, schedule: Q04DX003 (ip), vehicle: saline): 115 % of control
- T/C (dose: 180.0 mg/kg/injection, schedule: Q04DX003 (ip), vehicle: water): 161 % of control
- T/C (dose: 300.0 mg/kg/injection, schedule: Q04DX003 (ip), vehicle: water): 106 % of control
- T/C (dose: 833.0 mg/kg/injection, schedule: Q04DX003 (ip), vehicle: saline): 187 % of control

SMILES: CC(C)NCC(O)COc1cccc2ccccc12 (centres undefined)
- T/C (dose: 4.0 mg/kg/injection, schedule: Q04DX003 (ip), vehicle: Klucel (hydroxypropylcellulose) (HPC)): 109 % of control
- T/C (dose: 8.0 mg/kg/injection, schedule: Q04DX003 (ip), vehicle: Klucel (hydroxypropylcellulose) (HPC)): 102 % of control
- T/C (dose: 16.0 mg/kg/injection, schedule: Q04DX003 (ip), vehicle: Klucel (hydroxypropylcellulose) (HPC)): 107 % of control
- T/C (dose: 32.0 mg/kg/injection, schedule: Q04DX003 (ip), vehicle: Klucel (hydroxypropylcellulose) (HPC)): 101 % of control
- T/C (dose: 64.0 mg/kg/injection, schedule: Q04DX003 (ip), vehicle: Klucel (hydroxypropylcellulose) (HPC)): 107 % of control

SMILES: CC1CCC(NC(=O)N(CCCl)N=O)CC1 (centres undefined)
- T/C (dose: 5.0 mg/kg/injection, schedule: Q04DX003 (ip), vehicle: Klucel (hydroxypropylcellulose) (HPC)): 250 % of control
- T/C (dose: 6.7 mg/kg/injection, schedule: Q04DX002 (ip), vehicle: saline with Tween-80): 106 % of control
- T/C (dose: 10.0 mg/kg/injection, schedule: Q04DX002 (ip), vehicle: saline with Tween-80): 108 % of control
- T/C (dose: 10.0 mg/kg/injection, schedule: Q04DX003 (ip), vehicle: Klucel (hydroxypropylcellulose) (HPC)): 305 % of control
- T/C (dose: 12.0 mg/kg/injection, schedule: Q07DX003 (ip), vehicle: saline with Tween-80): 189 % of control and 219 % of control
- T/C (dose: 15.0 mg/kg/injection, schedule: Q04DX002 (ip), vehicle: saline with Tween-80): 123 % of control
- T/C (dose: 17.0 mg/kg/injection, schedule: Q07DX003 (ip), vehicle: saline with Tween-80): 262 % of control and 288 % of control
- T/C (dose: 20.0 mg/kg/injection, schedule: Q01DX001 (ip), vehicle: other): 217 % of control
- T/C (dose: 20.0 mg/kg/injection, schedule: Q04DX003 (ip), vehicle: Klucel (hydroxypropylcellulose) (HPC)): 437 % of control
- T/C (dose: 24.0 mg/kg/injection, schedule: Q07DX003 (ip), vehicle: saline with Tween-80): 288 % of control and 354 % of control
- T/C (dose: 30.0 mg/kg/injection, schedule: Q01DX001 (ip), vehicle: other): 217 % of control
- T/C (dose: 30.0 mg/kg/injection, schedule: Q01DX005 (ip), vehicle: saline with Tween-80): 352 % of control
- T/C (dose: 40.0 mg/kg/injection, schedule: Q01DX005 (ip), vehicle: saline with Tween-80): 329 % of control
- T/C (dose: 55.0 mg/kg/injection, schedule: Q01DX005 (ip), vehicle: saline with Tween-80): 172 % of control

SMILES: CC(=O)O[C@@H]1[C@@H](O)C2=C3[C@]4(C)[C@@H]1C(C)(C)C(=O)C[C@@H]4[C@]3(O)[C@H](OC(C)=O)[C@@]1(C[C@@H]1C)C2=O
- T/C (dose: 6.25 mg/kg/injection, schedule: Q04DX003 (ip), vehicle: distilled water + Tween-80): 94 % of control
- T/C (dose: 6.25 mg/kg/injection, schedule: Q04DX003 (ip), vehicle: saline with Tween-80): 106 % of control
- T/C (dose: 12.5 mg/kg/injection, schedule: Q04DX003 (ip), vehicle: distilled water + Tween-80): 106 % of control
- T/C (dose: 25.0 mg/kg/injection, schedule: Q04DX003 (ip), vehicle: distilled water + Tween-80): 106 % of control
- T/C [1]: 99 % of control
- T/C (dose: 50.0 mg/kg/injection, schedule: Q04DX003 (ip), vehicle: distilled water + Tween-80): 100 % of control
- T/C [2]: 106 % of control
- T/C [3]: 106 % of control

Reference: PubChem BioAssay AID210 (DTP/NCI, 2004)
